For three compounds, IC50 and EC50 results are on record in ChEMBL document CHEMBL1201862, “PubChem BioAssay data set” (2004).

Active and inactive are the calls of the source.

In one assay the target is Aspartyl aminopeptidase (Plasmodium falciparum 3D7, UniProt Q8I2J3). The assay can be described thus: Counterscreen for inhibitors of M1 and M17 aminopeptidases: QFRET-based biochemical high throughput dose response assay for inhibitors of the Plasmodium falciparum M18 Aspartyl Aminopeptidase (PFM18AAP). [Related PubChem assays: 1619 (Screening assay (M17LAP inhibitors).), 1445 (Screening assay (M1AAP inhibitors).)]. In general terms: Counterscreens check selectivity or assay interference.

In assay [1] the target is T1, Alkaline phosphatase, tissue-nonspecific isozyme (Homo sapiens, UniProt P05186).
T1 sequence (P05186 whole entry): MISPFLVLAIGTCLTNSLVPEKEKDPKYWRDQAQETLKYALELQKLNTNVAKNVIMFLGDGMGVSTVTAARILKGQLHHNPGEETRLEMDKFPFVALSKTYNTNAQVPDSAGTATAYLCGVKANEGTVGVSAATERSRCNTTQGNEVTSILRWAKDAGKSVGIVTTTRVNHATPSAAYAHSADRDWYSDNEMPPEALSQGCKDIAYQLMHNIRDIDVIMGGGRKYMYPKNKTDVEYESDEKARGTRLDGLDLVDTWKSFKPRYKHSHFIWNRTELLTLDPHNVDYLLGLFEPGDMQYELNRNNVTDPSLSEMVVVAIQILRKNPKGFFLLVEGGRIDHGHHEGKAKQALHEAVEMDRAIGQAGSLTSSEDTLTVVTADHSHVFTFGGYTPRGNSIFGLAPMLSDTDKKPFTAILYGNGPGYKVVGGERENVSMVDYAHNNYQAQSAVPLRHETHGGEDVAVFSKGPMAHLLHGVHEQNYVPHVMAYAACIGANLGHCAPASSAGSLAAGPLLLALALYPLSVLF
The assay can be described thus: TNAP enzyme inhibition by screening hits, dose response, selectivity assay for mouse IAP inhibitor project, biochemical, human TNAP, uHTS hits (AID 488906). The assay is classed as functional.

The target of assay [2] is T2, Polyadenylate-binding protein 1 (Homo sapiens, UniProt P11940). Put plainly: PABP1 MLLE–PAM2 interaction inhibitors, dose response, miRNA deadenylation inhibitor project, biochemical, fluorescence polarization, Cy5-PAM2 peptide, secondary (AID 602260). The assay is classed as functional. The note with it: read-out: IC50_Mean. (In general: Fluorescence polarisation rises when a labelled molecule tumbles more slowly, as on binding a larger partner.)

Assay [3] concerns the target T3, RNA-binding protein pos-1 (Caenorhabditis elegans, UniProt G5EF15).
T3 sequence (G5EF15 whole entry): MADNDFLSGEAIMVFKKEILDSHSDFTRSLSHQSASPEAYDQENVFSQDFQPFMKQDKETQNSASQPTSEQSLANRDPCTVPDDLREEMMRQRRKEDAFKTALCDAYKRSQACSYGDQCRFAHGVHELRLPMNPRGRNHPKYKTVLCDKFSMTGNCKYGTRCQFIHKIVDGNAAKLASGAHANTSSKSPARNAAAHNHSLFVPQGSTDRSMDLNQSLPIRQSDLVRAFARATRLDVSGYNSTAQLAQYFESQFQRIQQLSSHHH
The assay can be described thus: inhibitors of POS-1/mex-3 RNA binding, dose response, biochemical, fluorescence polarization (AID 1964).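 Further: purified POS-1 fused to maltose binding protein made in E. coli; potency of compounds blocking POS-1 binding to fluorescent RNA.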

The target of assay [4] is T4, Zinc finger protein mex-5 (Caenorhabditis elegans, UniProt Q9XUB2).
T4 sequence (Q9XUB2 whole entry): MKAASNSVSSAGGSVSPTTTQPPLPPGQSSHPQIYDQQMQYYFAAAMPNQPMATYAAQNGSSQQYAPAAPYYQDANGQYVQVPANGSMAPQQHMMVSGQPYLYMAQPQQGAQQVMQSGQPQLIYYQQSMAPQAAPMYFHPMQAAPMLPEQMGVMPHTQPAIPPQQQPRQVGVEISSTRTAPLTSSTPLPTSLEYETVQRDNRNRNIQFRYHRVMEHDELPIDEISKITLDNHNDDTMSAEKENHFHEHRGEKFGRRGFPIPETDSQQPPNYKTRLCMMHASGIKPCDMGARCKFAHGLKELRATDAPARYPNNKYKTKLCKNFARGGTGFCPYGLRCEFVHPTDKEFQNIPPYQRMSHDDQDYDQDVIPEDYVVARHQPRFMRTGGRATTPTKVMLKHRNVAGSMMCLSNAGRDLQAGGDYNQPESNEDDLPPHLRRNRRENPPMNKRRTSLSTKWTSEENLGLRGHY
Put plainly: MEX-5/TCR-2 RNA interaction inhibitors, dose response, biochemical, C. elegans, fluorescence polarization (AID 1960).

The target in assay [5] is T2, Polyadenylate-binding protein 1. The assay can be described thus: PABP1 MLLE–PAM2 binding inhibitor potency, dose response, biochemical, fluorescence polarization, FITC-PAM2 peptide (AID 602259). The assay is classed as functional. The following applies: read-out: IC50_Mean.
Another assay concerns the target T5, Aminopeptidase N (Plasmodium falciparum FcB1/Columbia, UniProt O96935).
T5 sequence (O96935 whole entry): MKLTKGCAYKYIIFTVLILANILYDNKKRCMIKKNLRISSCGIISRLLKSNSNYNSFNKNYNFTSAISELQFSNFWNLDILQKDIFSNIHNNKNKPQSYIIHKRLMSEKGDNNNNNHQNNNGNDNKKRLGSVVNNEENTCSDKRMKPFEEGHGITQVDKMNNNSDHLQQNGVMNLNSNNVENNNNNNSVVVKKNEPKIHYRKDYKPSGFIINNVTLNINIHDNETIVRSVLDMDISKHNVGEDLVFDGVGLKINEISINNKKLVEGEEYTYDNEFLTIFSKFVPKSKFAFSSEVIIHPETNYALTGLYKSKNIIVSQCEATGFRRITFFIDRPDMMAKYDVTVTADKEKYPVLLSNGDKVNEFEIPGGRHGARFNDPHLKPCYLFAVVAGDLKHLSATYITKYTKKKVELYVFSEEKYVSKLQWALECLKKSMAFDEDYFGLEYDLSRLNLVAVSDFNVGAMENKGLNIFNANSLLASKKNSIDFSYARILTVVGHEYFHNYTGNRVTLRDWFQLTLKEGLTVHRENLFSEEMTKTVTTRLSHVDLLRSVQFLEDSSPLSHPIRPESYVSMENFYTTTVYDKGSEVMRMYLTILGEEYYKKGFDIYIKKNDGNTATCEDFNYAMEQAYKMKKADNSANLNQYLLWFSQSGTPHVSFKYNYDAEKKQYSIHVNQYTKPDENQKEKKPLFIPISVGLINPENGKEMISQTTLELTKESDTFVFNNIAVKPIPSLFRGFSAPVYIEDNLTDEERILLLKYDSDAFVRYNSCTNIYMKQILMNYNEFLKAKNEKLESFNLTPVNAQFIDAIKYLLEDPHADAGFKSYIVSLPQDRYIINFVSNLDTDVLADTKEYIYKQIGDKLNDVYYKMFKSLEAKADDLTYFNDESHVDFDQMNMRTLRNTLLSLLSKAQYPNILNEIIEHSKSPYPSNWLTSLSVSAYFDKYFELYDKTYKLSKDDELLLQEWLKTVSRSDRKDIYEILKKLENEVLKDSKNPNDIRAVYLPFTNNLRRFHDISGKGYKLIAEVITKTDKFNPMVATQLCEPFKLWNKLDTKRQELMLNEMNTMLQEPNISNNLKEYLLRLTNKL
Put plainly: P. falciparum M1AAP inhibitors, biochemical, fluorogenic H-Leu-NHMec substrate, 1536-well (AID 1445). Further details: species or system Plasmodium falciparum 3D7, 3D7.

Assay [6] deals with Intestinal-type alkaline phosphatase (Homo sapiens, UniProt P09923). The assay can be described thus: inhibition of human intestinal alkaline phosphatase – biochemical, dose response (AID 488876). The assay is classed as functional.
In another assay the target is Procathepsin L (Homo sapiens, UniProt P07711). The assay can be described thus: cathepsin L inhibitors, dose response, counter-screen for M1/M17 aminopeptidase inhibitor project, biochemical, QFRET, 1536-well (AID 2214).
In assay [7] the target is Intestinal-type alkaline phosphatase (Mus musculus, UniProt P24822). The assay can be described thus: PubChem AID 488785. The assay is classed as functional.
For assay [8], the target named is T6, Tyrosine-protein phosphatase non-receptor type 22 (Homo sapiens, UniProt Q9Y2R2).
T6 sequence (Q9Y2R2 whole entry): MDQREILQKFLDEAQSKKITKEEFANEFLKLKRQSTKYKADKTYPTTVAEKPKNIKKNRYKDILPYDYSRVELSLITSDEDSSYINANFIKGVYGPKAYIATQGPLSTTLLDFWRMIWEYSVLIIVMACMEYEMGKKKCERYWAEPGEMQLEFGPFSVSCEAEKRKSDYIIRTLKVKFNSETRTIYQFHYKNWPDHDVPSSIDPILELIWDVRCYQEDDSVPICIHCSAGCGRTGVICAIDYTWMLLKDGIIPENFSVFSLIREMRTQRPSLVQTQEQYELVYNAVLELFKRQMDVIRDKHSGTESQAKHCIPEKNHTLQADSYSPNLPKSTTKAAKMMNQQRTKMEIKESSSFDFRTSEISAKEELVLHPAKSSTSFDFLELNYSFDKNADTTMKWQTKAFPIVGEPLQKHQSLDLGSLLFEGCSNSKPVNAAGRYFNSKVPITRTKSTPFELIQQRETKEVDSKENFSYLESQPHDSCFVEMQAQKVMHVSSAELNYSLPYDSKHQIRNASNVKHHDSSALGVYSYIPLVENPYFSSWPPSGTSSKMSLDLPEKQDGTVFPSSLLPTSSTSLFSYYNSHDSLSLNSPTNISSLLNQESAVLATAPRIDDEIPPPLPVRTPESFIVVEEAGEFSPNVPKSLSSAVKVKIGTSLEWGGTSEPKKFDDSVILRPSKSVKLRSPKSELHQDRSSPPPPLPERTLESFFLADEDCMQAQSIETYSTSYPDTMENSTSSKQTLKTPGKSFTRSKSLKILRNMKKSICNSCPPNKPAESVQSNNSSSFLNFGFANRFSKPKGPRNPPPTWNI
The assay is classed as functional.

In assay [9] the target is T7, Tyrosine-protein phosphatase non-receptor type 7 (Homo sapiens, UniProt P35236).
T7 sequence (P35236 whole entry): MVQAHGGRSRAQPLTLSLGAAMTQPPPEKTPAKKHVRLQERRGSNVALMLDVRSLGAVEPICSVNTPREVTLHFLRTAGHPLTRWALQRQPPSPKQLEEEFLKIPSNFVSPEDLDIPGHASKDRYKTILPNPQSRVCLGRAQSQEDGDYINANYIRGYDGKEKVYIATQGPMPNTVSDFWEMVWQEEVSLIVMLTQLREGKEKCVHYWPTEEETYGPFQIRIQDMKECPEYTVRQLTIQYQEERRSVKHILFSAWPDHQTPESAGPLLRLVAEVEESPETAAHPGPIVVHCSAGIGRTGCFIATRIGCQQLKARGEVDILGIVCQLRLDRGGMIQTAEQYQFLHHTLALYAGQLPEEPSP
The assay is classed as functional.

Assay [10] addresses T6, Tyrosine-protein phosphatase non-receptor type 22. The assay is classed as functional. This is another data set of the same source.
Assay [11] concerns the target Sphingosine 1-phosphate receptor 1 (Homo sapiens, UniProt P21453). The assay can be described thus: Fluorescence-based counterscreen assay for S1P4 agonists: Cell-based dose response high throughput screening assay to identify agonists of the Sphingosine 1-Phosphate Receptor 1 (S1P1). [Related pubchem assays (depositor defined):AID1509, AID1523, AID1801, AID463107, AID463118, AID463119, AID463122, AID463123, AID463129, AID463225, AID504400, AID504460]. The assay is classed as functional.

The nature of assay [12]: growth suppression of beta-catenin-knockout colon cells, dose response, cell-based, HCT116, human colon tumor (AID 1045).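 Further: HCT116 colon tumor cells with beta catenin knocked out; cells exposed to compound for 60 hours.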 The assay is classed as functional.
For the next assay, the system named is HT-1080. Put plainly: cytotoxicity in HT1080 fibrosarcoma cells, cell-based, fluorescence readout (AID 620). The assay is classed as functional. The following applies: Homo sapiens.
Assay [13] addresses Sphingosine 1-phosphate receptor 4 (Homo sapiens, UniProt O95977). Put plainly: Fluorescence dose response cell-based high throughput screening assay for agonists of the Sphingosine 1-Phosphate Receptor 4 (S1P4). [Related pubchem assays: 1509 (Primary screen.), 1523 (Confirmation screen in triplicates.)]. The assay is classed as functional.
Assay [14] addresses Sphingosine 1-phosphate receptor 2 (Homo sapiens, UniProt O95136). The assay can be described thus: Dose Response Cell Based Assay for Agonists of the S1P2 Receptor. [Related pubchem assays: 729, 736, 843 ]. The assay is classed as functional.
A short description of assay [15]: growth suppression of PTEN-null colon cells, dose response, cell-based, HCT116 PTEN knockout (AID 1047).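 Further: HCT116 colon tumor cells with PTEN knocked out; cells exposed to compound for 60 hours before readout; potency for loss of cell viability measured by luminescence.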 The assay is classed as functional.
Assay [16] concerns the target Luciferin 4-monooxygenase (Photinus pyralis, UniProt P08659). The assay can be described thus: Counter Screen for Luciferase-based Assay Positives. [Related pubchem assays: 620, 618, 411 ].

T2 sequence (P11940 whole entry): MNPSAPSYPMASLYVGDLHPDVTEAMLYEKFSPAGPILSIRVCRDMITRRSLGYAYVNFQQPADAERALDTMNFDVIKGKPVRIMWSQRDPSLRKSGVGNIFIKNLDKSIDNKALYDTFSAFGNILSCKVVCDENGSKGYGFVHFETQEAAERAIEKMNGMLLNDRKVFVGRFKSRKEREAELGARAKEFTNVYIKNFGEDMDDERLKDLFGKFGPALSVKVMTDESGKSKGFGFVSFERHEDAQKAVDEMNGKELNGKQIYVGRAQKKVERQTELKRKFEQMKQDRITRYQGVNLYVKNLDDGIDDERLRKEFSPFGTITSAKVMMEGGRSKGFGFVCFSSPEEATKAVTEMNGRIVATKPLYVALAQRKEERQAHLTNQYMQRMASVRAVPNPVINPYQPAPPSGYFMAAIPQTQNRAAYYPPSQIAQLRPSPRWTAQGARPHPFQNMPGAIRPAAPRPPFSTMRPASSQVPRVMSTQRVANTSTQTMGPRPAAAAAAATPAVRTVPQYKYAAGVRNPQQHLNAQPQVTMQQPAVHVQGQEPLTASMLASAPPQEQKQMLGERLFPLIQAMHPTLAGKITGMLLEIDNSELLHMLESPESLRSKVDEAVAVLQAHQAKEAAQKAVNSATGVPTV
Chain of Aspartyl aminopeptidase (Q8I2J3 whole entry): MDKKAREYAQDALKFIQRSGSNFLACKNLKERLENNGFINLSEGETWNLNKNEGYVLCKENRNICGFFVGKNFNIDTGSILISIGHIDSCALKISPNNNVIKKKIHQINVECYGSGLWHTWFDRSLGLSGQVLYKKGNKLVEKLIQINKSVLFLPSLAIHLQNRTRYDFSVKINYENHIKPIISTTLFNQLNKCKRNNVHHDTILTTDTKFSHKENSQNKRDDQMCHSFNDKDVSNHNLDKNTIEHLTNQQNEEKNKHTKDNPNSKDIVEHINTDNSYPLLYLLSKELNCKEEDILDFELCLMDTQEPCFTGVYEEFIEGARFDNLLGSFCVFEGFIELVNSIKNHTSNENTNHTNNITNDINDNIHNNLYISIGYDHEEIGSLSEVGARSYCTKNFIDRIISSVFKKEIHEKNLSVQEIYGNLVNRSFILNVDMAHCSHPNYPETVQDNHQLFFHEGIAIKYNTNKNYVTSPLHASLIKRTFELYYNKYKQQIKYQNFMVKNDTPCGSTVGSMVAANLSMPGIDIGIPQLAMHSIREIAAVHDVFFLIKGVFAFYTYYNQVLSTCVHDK
Chain of Intestinal-type alkaline phosphatase (Homo sapiens, UniProt P09923) (P09923 whole entry): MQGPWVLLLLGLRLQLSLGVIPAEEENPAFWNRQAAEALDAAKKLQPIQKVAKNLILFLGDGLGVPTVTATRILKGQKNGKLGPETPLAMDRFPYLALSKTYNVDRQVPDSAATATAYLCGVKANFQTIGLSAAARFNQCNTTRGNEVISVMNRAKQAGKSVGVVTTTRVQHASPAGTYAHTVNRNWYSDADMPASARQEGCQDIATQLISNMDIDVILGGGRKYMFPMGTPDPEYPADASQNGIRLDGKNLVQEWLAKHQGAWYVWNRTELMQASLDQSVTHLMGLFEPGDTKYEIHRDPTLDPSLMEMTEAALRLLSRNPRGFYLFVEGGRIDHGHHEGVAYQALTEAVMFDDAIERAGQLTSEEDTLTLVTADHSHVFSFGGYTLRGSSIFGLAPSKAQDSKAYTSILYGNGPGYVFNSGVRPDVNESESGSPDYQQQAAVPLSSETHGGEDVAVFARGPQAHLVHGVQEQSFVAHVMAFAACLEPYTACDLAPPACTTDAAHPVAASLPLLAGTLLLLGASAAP
Chain of Procathepsin L (P07711 whole entry): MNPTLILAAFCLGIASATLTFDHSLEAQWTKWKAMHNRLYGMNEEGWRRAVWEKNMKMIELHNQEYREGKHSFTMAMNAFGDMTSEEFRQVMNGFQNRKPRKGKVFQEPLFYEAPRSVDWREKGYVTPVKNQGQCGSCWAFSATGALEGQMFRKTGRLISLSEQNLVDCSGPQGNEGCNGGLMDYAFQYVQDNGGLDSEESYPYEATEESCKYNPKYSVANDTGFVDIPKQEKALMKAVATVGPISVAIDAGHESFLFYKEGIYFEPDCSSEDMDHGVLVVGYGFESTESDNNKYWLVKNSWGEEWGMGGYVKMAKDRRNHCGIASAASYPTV
Chain of Sphingosine 1-phosphate receptor 4 (O95977 whole entry): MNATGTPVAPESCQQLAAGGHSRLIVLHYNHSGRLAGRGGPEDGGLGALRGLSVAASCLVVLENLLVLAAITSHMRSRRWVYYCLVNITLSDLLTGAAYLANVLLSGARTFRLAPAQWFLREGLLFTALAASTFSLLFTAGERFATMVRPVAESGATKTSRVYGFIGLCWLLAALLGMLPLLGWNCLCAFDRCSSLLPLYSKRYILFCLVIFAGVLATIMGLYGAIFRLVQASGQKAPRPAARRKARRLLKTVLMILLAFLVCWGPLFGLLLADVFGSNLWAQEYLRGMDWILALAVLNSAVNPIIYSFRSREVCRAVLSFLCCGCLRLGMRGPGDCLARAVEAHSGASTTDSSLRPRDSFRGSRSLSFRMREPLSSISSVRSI
Chain of Intestinal-type alkaline phosphatase (Mus musculus, UniProt P24822) (P24822 whole entry): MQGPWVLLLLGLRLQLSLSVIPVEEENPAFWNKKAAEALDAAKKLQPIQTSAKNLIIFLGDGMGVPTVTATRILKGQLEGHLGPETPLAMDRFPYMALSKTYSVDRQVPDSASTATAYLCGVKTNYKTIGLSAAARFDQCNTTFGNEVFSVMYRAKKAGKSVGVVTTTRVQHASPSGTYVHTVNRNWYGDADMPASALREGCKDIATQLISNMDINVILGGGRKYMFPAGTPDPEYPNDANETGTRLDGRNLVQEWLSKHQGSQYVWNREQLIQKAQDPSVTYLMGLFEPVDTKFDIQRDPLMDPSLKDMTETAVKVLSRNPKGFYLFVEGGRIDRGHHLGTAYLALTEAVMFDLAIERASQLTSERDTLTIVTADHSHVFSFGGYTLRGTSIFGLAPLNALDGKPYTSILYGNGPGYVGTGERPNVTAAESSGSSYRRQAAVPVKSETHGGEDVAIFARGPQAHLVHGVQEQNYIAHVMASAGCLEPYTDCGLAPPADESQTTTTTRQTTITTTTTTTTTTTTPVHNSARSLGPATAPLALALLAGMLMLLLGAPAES
Chain of Sphingosine 1-phosphate receptor 1 (P21453 whole entry): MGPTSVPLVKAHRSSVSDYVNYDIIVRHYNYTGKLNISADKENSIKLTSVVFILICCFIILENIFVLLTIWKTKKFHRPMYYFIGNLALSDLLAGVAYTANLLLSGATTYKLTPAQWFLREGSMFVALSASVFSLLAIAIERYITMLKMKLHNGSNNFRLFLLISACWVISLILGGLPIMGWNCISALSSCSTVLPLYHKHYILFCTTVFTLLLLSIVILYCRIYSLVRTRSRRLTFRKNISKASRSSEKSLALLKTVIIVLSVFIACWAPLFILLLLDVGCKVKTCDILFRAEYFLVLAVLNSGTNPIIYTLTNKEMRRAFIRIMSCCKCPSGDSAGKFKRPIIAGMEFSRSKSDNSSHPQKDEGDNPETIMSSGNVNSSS
Chain of Luciferin 4-monooxygenase (P08659 whole entry): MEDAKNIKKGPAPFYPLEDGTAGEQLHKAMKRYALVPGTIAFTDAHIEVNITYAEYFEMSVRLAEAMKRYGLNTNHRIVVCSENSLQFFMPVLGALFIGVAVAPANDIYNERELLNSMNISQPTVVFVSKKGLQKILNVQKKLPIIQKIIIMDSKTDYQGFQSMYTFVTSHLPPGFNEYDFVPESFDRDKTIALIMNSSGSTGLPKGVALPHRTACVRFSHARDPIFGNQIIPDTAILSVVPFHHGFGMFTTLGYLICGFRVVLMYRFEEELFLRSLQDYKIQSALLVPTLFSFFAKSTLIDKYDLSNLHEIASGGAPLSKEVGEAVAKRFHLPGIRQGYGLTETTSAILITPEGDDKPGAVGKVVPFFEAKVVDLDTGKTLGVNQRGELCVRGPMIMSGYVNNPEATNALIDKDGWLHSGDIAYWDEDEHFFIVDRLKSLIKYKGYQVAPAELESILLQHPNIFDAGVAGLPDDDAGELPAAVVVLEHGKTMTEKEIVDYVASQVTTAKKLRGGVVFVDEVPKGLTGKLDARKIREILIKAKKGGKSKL
Chain of Sphingosine 1-phosphate receptor 2 (O95136 whole entry): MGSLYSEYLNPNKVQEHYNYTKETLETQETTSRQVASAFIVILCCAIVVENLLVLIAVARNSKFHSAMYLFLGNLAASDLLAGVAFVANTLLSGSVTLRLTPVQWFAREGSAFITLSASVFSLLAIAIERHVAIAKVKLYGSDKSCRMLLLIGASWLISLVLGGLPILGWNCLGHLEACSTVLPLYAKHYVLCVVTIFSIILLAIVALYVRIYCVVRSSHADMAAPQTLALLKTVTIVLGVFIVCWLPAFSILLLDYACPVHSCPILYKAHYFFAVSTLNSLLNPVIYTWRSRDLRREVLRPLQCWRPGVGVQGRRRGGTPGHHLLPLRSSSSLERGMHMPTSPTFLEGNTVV

`CCN1C(=O)/C(=C2\SC(=S)N(NC(=O)c3ccccc3O)C2=O)c2ccccc21`: the IC50 against Aspartyl aminopeptidase is 25 µM (not active); in assay [1], > 100 µM (inactive); in assay [2] it was > 66 µM (inactive); in assay [5] it was > 66 µM (inactive); at Aminopeptidase N, 9.43 µM (active); in assay [6] it was > 100 µM (inactive). The values for the IC50 (against Procathepsin L; in assay [7]) were > 59.6 µM (not active) and 53.5 µM (active), respectively. Moreover, the values for the EC50 in assay [3] and in assay [4] were 7.47 µM (active) and 5.31 µM (active), respectively.
With `CSCC[C@H](NC(=O)Nc1cccc(C(F)(F)F)c1)C(=O)O`, the IC50 in assay [8], in assay [9] and in assay [10] was > 79.4 µM (inactive) throughout.
For the compound `CN(C)CCCNS(=O)(=O)c1ccc(N2CCC(c3ccc(Cl)cc3)=N2)cc1`, the EC50 (as a rule, the concentration that produces a half-maximal response) in [11] is > 0.614 µM (active); in [12], 4.67 µM (active); in the assay on HT-1080, 14.4 µM (active); in [13], > 0.614 µM (active); in assay [14], 0.338 µM (active); in assay [15], 4.53 µM (active). Besides, in assay [16], the EC50 was 1.04 µM (active).
